Assay results as given in patent publication US5468769A, “Paclitaxel derivatives” (Abbott Laboratories, priority 1993, dated 1995).
Converted amounts (≈) assume the structure as drawn. Read-outs that look alike come from different tables or passages of the source.

How the values were obtained:
A549 = test: In vitro tumor cell cytotoxicity (MTT colorimetric growth inhibition); type: cell-based; conditions: Homo sapiens
Experimental: (§1) The compounds of the present invention were tested for in vitro cytotoxic activity against the tumor lines A549 […], HT-29 […], B16F10 (mouse melanoma) and P-388 (mouse leukemia). Concentrations of 50% growth inhibition (IC50 's) were measured in a colorimetric assay for cytotoxic activity against cultured cells according to the protocol described below:
(§2) A three-day microtiter assay was used to measure the growth inhibition of cultured cells exposed to a range of drug concentrations. Metabolic activity, and thus the continued survival of cells exposed to the test compounds, was measured by the cells' ability to reduce the tetrazolium dye, MTT (3-(4,5-dimethyl-thiazol-2-yl-2,5-diphenyltetrazolium bromide) to a quantifiable colored end product, which absorbs at 570 nm in the visible spectrum.
(§3) Test compounds were dissolved in dimethyl sulfoxide (DMSO) and diluted, first with Earle's Balanced Salt Solution followed by culture medium, to twice the highest concentration of compound to be tested. From this concentrated stock, twofold serial dilutions were prepared in 96-well microtiter trays, each well containing twice the desired final concentration of compound. Each concentration was tested in triplicate and compared to triplicate drug-free controls.
(§4) The cells were grown in the same medium used for diluting the compounds and then harvested using trypsinization. This involved removing the medium by aspiration; rinsing the cell monolayer twice with Earle's Balanced Salt Solution; adding trypsin (0.05%)/EDTA (0.53 mM; for each 25 cm^2, approximately 0.2 mL), tilting to cover the monolayer, and then withdrawing trypsin leaving only a thin film of solution; incubating at room temperature until the cell monolayers detached (as determined by visual and/or microscopic observation); adding medium containing fetal calf serum to stop the action of the trypsin and resuspend the cells; triturating to aid dissociation of cell clumps; and determining the number of cells per milliliter by electronic cell counter (e.g. Coulter Counter) or by mixing an aliquot of cell suspension with Trypan Blue (0.4% in normal saline) and counting the viable cells using a hemacytometer.
(§5) After harvesting and determination of viable cell counts, cell density was adjusted to 25,000 cells/mL. Inoculum (0.1 mL) containing the cells was then added to each well for a final concentration of 2,500 cells per well. Addition of the inoculum diluted the test compounds to the desired final concentration.
(§6) Microtiter trays were then incubated for three days at 36 ° C. in a humidified atmosphere containing 5% carbon dioxide. After three days, 20 microtiters of 5 mg/mL MTT in phosphate-buffered saline solution were added to each well. Trays were returned to the incubator for two to four hours to allow the surviving cells to reduce the dye. Medium and unreduced dye were removed by aspiration. DMSO was added to each well to dissolve the water-insoluble, colored end product of the dye reduction so that it could be measured spectrophotometrically at 570 nm. The IC50 was determined as the concentration of compound tested required to reduce the absorbance at 570 nm to 50% of non-drug treated control values.

HT-29 = test: as above; type: cell-based; conditions: Homo sapiens
Experimental: as §1, §2, §3, §4, §5, §6

B16F10 = test: as above; type: cell-based, mouse; conditions: B16-F10, 72 h
Experimental: as §1, §2, §3, §4, §5, §6

P388 = test: as above; type: cell-based, mouse; conditions: P388, 72 h
Experimental: as §1, §2, §3, §4, §5, §6

[1] = tested on: advanced breast and ovarian cancers; conditions: cited from earlier work
[2] = tested on: a number of other tumor types; conditions: preliminary investigations; cited from earlier work

| Compound | IC50 (A549; 72 h, A549, three-day microtiter assay, MTT, 570 nm, read-out: IC50) | IC50 (HT-29; 72 h, HT-29, three-day microtiter assay, MTT, 570 nm, read-out: IC50) | IC50 (B16F10; B16F10 (mouse melanoma), three-day microtiter assay, MTT, 570 nm, read-out: IC50) | IC50 (P388; P-388 (mouse leukemia), three-day microtiter assay, MTT, 570 nm, read-out: IC50) | IC50 (A549; A549, 72 h) | IC50 (HT-29; HT-29, 72 h) | IC50 (B16F10; Mus musculus) | IC50 (P388; Mus musculus) | effectiveness in clinical trials [1] | activity against other tumor types [2] |
| --- | --- | --- | --- | --- | --- | --- | --- | --- | --- | --- |
| CC(=O)O[C@@H]1C2=C(C)[C@@H](OC(=O)[C@H](O)[C@@H](NC(=O)OC(C)(C)C)c3ccccc3)C[C@@](O)([C@@H](OC(=O)c3ccccc3)[C@@H]3[C@]4(OC(C)=O)CO[C@@H]4C[C@H](C)[C@@]13C=O)C2(C)C [Example 3, 8-tert-Butyloxycarbonylamino-α-hydroxybenzenepropanoic acid 4,9-bis(acetyloxy)-2-benzoyloxy-8-formyl-1.2.3.4.5.6.7.8.10.13.14-undecahydro-1-hydroxy-7.14.14.17-tetramethyl-1.10-methano-20H-cyclonona[2.3]benz[1.2.b]oxet-12-yl ester] | 9.8 ng/mL (≈ 0.0118 µM) | 5.4 ng/mL (≈ 0.00648 µM) | 4.6 ng/mL (≈ 0.00552 µM) | 8.3 ng/mL (≈ 0.00995 µM) | – | – | – | – | – | – |
| CC(=O)O[C@@H]1C2=C(C)[C@@H](OC(=O)[C@H](O)[C@@H](NC(=O)c3ccccc3)c3ccccc3)C[C@@](O)([C@@H](OC(=O)c3ccccc3)[C@@H]3[C@]4(OC(C)=O)CO[C@@H]4C[C@H](C)[C@@]13C=O)C2(C)C [Example 4, β-Benzoylamino-α-hydroxybenzenepropanoic acid 4,9-bis(acetyloxy)-2-benzoyloxy-8-formyl-1.2.3.4.5.6.7.8.10.13.14-undecahydro-1-hydroxy-7.14.14.17-tetramethyl-1.10-m,ethano-20H-cyclonona[2.3]benz[1.2-b]oxet-12-yl ester] | – | – | – | – | 17 ng/mL (≈ 0.0203 µM) | 76 ng/mL (≈ 0.0907 µM) | 45 ng/mL (≈ 0.0537 µM) | 32 ng/mL (≈ 0.0382 µM) | – | – |
| CC(=O)O[C@H]1C(=O)[C@@]2(C)[C@H]([C@H](OC(=O)c3ccccc3)[C@]3(O)C[C@H](OC(=O)[C@H](O)[C@@H](NC(=O)c4ccccc4)c4ccccc4)C(C)=C1C3(C)C)[C@]1(OC(C)=O)CO[C@@H]1C[C@@H]2O [Paclitaxol, Paclitaxel] | – | – | – | – | 3.4 ng/mL (≈ 0.00398 µM) | 2.5 ng/mL (≈ 0.00293 µM) | 3.1 ng/mL (≈ 0.00363 µM) | 9.6 ng/mL (≈ 0.0112 µM) | effective against advanced breast and ovarian cancers | promising activity against a number of other tumor types |
